In US7626027B2, “Substituted 1H-pyrrolo[2,3-c]pyridine-2-carboxamides and related analogs as inhibitors of casein kinase Iε” (Aventis Pharmaceuticals Inc, priority 2003, dated 2009):
Where two headings read alike, the source gives them in different places.

Experiments:
[1] = test system: Mper1-luc Rat-1 fibroblasts (P2C4); assay: Cellular Circadian Assay (Mper1-luc reporter period lengthening); format: cell-based; conditions: effective micromolar concentration that induced a 1 hour lengthening of circadian period
Excerpt: The assay consists of Rat-1 fibroblasts stably expressing an Mper1-luc construct, thus enabling the determination of the rhythmic activation of the Mper1 promoter in living cells by repeatedly estimating luciferase activity by monitoring light-output over several days. The repeated measure format of the assay permits accurate and reproducible assessment of the concentration-dependent effects of CKIε inhibitors on circadian rhythm and provides the nexus for relating CKIε inhibition to circadian period alteration.
Cellular Circadian Assay Experimental Procedures
Stable transfection: Rat-1 fibroblast cultures at 30-50% confluence were co-transfected with vectors containing the Zeocin resistance selectable marker for stable transfection and an mPer-1 promoter-driven luciferase reporter gene. After 24-48 hours, cultures were split onto 96 well plates and maintained in growth media supplemented with 50-100 μg/mL Zeocin (Invitrogen #45-0430) for 10-14 days. Zeocin-resistant stable transfectants were assessed for reporter expression by supplementing growth media with 100 μM luciferin (Promega #E1603) and assaying luciferase activity on a TopCount scintillation counter (Packard Model #C384V00). […] Mper1-luc Rat-1 fibroblasts clone P2C4 was selected for compound testing. […] After synchronization, cultures were rinsed with 100 μL EMEM (Celigro #10-010-CV) for 10 minutes at room temperature. […] Compounds tested for circadian effects were added to CO2-independent media in 0.3% DMSO (final concentration). […] In Vivo luciferase activity was estimated by measuring relative light output on a TopCount scintillation counter (Packard Model #C384V00). Plates were transferred from incubator to reader using an ORCA robotic arm (Beckman Instruments) and SAMI-NT automated scheduling software (Version 3.3; SAGIAN/Beckman Instruments). Data Analysis: Microsoft Excel and XLfit (Version 2.0.9; IDBS) were used to import, manipulate and graph data. Period analysis was performed either by determining the interval between relative light output minima over several days or by Fourier Transform. […] Potency is reported as EC≡t+1h, which is presented as the effective micromolar concentration that induced a 1 hour lengthening of period. The data was analyzed by fitting a hyperbolic curve to the data expressed as period change (y-axis) versus the concentration of test compound (x-axis) in XLfit and the EC[…]t+1h was interpolated from this curve.

casein kinase 1ε = molecular target: T1, casein kinase 1ε (Homo sapiens, UniProt P49674); assay: Casein Kinase Epsilon 33P-ATP Filter Plate Assay; format: biochemical
T1 construct: made in house
Excerpt: Casein Kinase Epsilon ^33P-ATP Filter Plate Assay for Screening CK1 Inhibitors Purpose: This assay measures the effect of compounds to inhibit the phosphorylation of the substrate casein by the enzyme casein kinase 1ε using an in vitro ^33P-ATP filtration assay.
Equipment: • Beckman Biomek 2000 Liquid Handling Robot • Beckman Multimek 96 Automated 96 Channel Pipettor • Millipore Vacuum Manifold Basic Kit # MAVM0960R • Titertek Multidrop Liquid Dispenser • Packard TopCount NXT Liquid Scintillation Counter
Enzyme: • Casein Kinase 1ε final concentration 0.58 mg/ml obtained from fermentation and purification processes performed by Aventis Pharmaceuticals Inc., France. The above are stored as 100 μL aliquots at minus 80° C.
Compounds: • Compounds for testing are supplied as frozen 10 mM compound stock dissolved in 100% DMSO. Assay Conditions:
Final total assay volume per well is equal to 50 μL made up as follows: • 5 μL of diluted compound stock ([…], 0.1, 0.01 or 0.001 μM), • 5 μL of dephosphorylated casein final concentration 0.2 μg/μL, • 20 μL of CK1ε final concentration 3 ng/μL, and • 20 μL of γ-^33P-ATP final concentration 0.02 μCi/μL mixed with cold ATP (10 μM final). Methodology: • 1. 500 mL of fresh assay buffer is made: 50 mM Tris pH 7.5, 10 mM MgCl2, 2 mM DTT and 1 mM EGTA • 2. Compounds to be evaluated are obtained as 10 μL of 10 mM stock dissolved in 100% DMSO. Using a Biomek 2000 liquid handling robot, serial dilutions are made to yield 10, 1, 0.1, 0.01 and 0.001 μM final compound dilutions added as 5 μL additions to Falcon U bottom plates. […] A routine screening assay will consist of 32 compounds, which equals 4 assay plates. • 3. Assay plate maps are set up according to the following pattern
• 4. […] Finally 20 μL […] (0.02 μCi/μL)/10 μM cold ATP are added (equals approximately 2×10^6 CPM per well). • 6. The Falcon U-Bottom assay plate containing the above 50 μL reaction volume is vortexed and then incubated at room temperature for 2 hours. • 7. At the end of 2 hours, the reaction is stopped by the addition of 65 μL of ice cold 2 mM cold ATP (made up in assay buffer) to the assay plates using a Beckman Multimek • 8. At the same time 25 μL 100% ice cold TCA made up in distilled H2O is added to a matching number of Millipore MAPH filter plates. • 9. Using a handheld 8-channel pipettor, 100 μL of the reaction mixture is transferred from the Falcon U-Bottom Plate to the Millipore MAPH filter plates presoaked with TCA. • 10. The Millipore MAPH filter plates are mixed gently and allowed to sit at room temperature for at least 30 minutes to precipitate the proteins. • 11. After 30 minutes the filter plates are placed on a Millipore vacuum manifold and filtered at no more than 8 mm Hg as the MAPH filters tend to “air lock” at higher vacuum settings. • 12. The filter plates are sequentially washed and filtered with 2×150 μL 20% TCA, 2×150 μL 10% TCA and 2×150 μL 5% TCA (total of 6 washes per plate/900 μL per well). • 13. Plates are allowed to dry overnight at room temperature. The next day 40 μL Packard Microscint-20 Scintillation Fluid is added per well using a Titertek Multidrop dispenser; the plates are sealed and counted for 2 minutes/well in a Packard Topcount NXT Scintillation Counter (CPM values/well are captured). Calculation: • 1. Counts Per Minute (CPM) data is captured and imported into a proprietary data calculation and archiving database (Activity Base by IDBS version 5.0). • 2. Column 1 for each plate reflects total phosphorylation activity of the enzyme in the absence of any inhibiting compound and thus represents 100%. Column 12 reflects any nonspecific phosphorylation/retained radioactivity activity in the absence of inhibiting compound and enzyme.

T1 sequence (P49674 whole entry): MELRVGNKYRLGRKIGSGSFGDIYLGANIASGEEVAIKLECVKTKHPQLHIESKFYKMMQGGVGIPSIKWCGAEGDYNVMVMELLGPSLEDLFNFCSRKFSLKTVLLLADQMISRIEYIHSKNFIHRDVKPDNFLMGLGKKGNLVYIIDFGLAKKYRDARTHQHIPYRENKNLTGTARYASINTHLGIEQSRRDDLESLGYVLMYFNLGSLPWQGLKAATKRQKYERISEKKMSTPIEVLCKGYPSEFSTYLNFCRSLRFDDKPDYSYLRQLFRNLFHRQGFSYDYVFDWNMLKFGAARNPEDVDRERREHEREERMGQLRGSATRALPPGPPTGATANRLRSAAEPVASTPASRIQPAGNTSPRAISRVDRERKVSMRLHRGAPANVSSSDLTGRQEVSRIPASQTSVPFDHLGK

Row | Structure (SMILES) | melting point [°C] | Cell Assay ECΔτ+1h [1] [µM] | IC50 (casein kinase 1ε) [nM] | IC50 (casein kinase 1ε; phosphorylation of casein, 10 μM cold ATP, 2 hours room temperature, * denotes average of 2 or more determinations, read-out: Casein Kinase Iε 33P-ATP Filter Plate Assay IC50) [nM]
1 | NC(=O)c1[nH]c2cccnc2c1Sc1ccccc1 [Ia-1, 3-Phenylsulfanyl-1H-pyrrolo[3,2-b]pyridine-2-carboxylic acid amide] | 251 | 0.27 | 36 | 
2 | NC(=O)c1[nH]c2cccnc2c1Sc1cccc(F)c1 [Ia-2, 3-(3-Fluorophenylsulfanyl)-1H-pyrrolo[3,2-b]pyridine-2-carboxylic acid amide] | 235 to 237 | 0.51 | 74 | 
3 | NC(=O)c1[nH]c2cccnc2c1Sc1cccc(Cl)c1 [Ia-3, 3-(3-Chlorophenylsulfanyl)-1H-pyrrolo[3,2-b]pyridine-2-carboxylic acid amide] | 246.5 to 248 | 0.31 | 26 | 
4 | NC(=O)c1[nH]c2cccnc2c1Sc1cccc(Br)c1 [Ia-4, 3-(3-Bromophenylsulfanyl)-1H-pyrrolo[3,2-b]pyridine-2-carboxylic acid amide] |  | 0.12 | 25 | 
5 | NC(=O)c1[nH]c2cccnc2c1Sc1ccccc1Cl [Ia-5, 3-(2-Chlorophenylsulfanyl)-1H-pyrrolo[3,2-b]pyridine-2-carboxylic acid amide] |  | 1.13 | 6530 | 
6 | NC(=O)c1[nH]c2cccnc2c1Sc1ccc(Cl)cc1 [Ia-6, 3-(4-Chlorophenylsulfanyl)-1H-pyrrolo[3,2-b]pyridine-2-carboxylic acid amide] | 266 | 13.8 | 491 | 
7 | NC(=O)c1[nH]c2cccnc2c1Sc1ccc(Cl)cc1Cl [Ia-7, 3-(2,4-Dichlorophenylsulfanyl)-1H-pyrrolo[3,2-b]pyridine-2-carboxylic acid amide] | 266 |  | > 10000 | 
8 | NC(=O)c1[nH]c2cccnc2c1Sc1ccccc1F [Ia-8, 3-(2-Fluorophenylsulfanyl)-1H-pyrrolo[3,2-b]pyridine-2-carboxylic acid amide] |  | 0.75 | 531 | 
9 | NC(=O)c1[nH]c2cccnc2c1Sc1ccccc1C(F)(F)F [Ia-10, 3-(2-Trifluormethylphenylsulfanyl)-1H-pyrrolo[3,2-b]pyridine-2-carboxylic acid amide] |  | 2.94 |  | 2890
10 | NC(=O)c1[nH]c2cccnc2c1Sc1ccccc1N [Ia-12, 3-(2-Aminophenylsulfanyl)-1H-pyrrolo[3,2-b]pyridine-2-carboxylic acid amide] |  | 0.44 | 36 | 
11 | COc1cccc(Sc2c(C(N)=O)[nH]c3cccnc23)c1 [Ia-15, 3-(3-Methoxy-phenylsulfanyl)-1H-pyrrolo[3,2-b]pyridine-2-carboxylic acid amide] |  | 1.1 | 109 | 
12 | NC(=O)c1[nH]c2cccnc2c1Sc1cccc([N+](=O)[O-])c1 [Ia-18, 3-(3-Nitro-phenylsulfanyl)-1H-pyrrolo[3,2-b]pyridine-2-carboxylic acid amide] |  | >10 | 186 | 
13 | Cc1ccc(Sc2c(C(N)=O)[nH]c3cccnc23)cc1 [Ia-20, 3-p-Tolylsulfanyl-1H-pyrrolo[3,2-b]pyridine-2-carboxylic acid amide] |  | >10 | 261 | 
14 | Cc1cccc(Sc2c(C(N)=O)[nH]c3cccnc23)c1 [Ia-22, 3-m-Tolylsulfanyl-1H-pyrrolo[3,2-b]pyridine-2-carboxylic acid amide] |  | >10 | 73 | 
15 | NC(=O)c1[nH]c2cccnc2c1Sc1cccc2cccnc12 [Ia-25, 3-(Quinolin-8-ylsulfanyl)-1H-pyrrolo[3,2-b]pyridine-2-carboxylic acid amide] |  | 2.26 | 1550 | 
